In patent US20160194359A1, “CELL-REACTIVE, LONG-ACTING, OR TARGETED COMPSTATIN ANALOGS AND RELATED COMPOSITIONS AND METHODS” (APELLIS PHARMACEUTICALS, INC., priority 2012, published 2016):

What was measured:
[1] = system: complement activation (alternative pathway); details: WO2004/026328; cited from earlier work
[2] = system: RBCs from a patient with PNH; assay: modified Ham's test with flow cytometry for CD59 and C3d (Example 18); type: cell-based, human; details: for % C′3 (Type I) / % C′3 (Type II) / % C′3 (Type III): cells positive for C3 loading
Procedure: A modified Ham's test was performed to assess the ability of compstatin analogs to protect PNH RBCs from complement-mediated lysis. […] Exposure to heat inactivated human serum was used as a control representing no significant complement-mediated lysis as complement is inactivated by heat. Exposure to acidified human serum and magnesium (Mg^2+) in the absence of complement inhibitors (pane labeled Mg^2+) was used as a control representing maximum lysis.
Following incubation, cells were stained with antibodies to CD59 and C3d. Cd59 level permitted the classification of the PNH RBCs as Type I, Type II, or Type III. Staining for C3d, a product of C3 activation and cleavage was used as a marker of C3 and C3 activation product deposition (loading). Flow cytometric analysis was performed to assess CD59 and C3d on RBC surfaces and to quantify the percentages of Type I, Type II, and Type III cells present in various samples.
Type I cells (shown in orange in FIG. 12) have normal levels of CD59. Type III cells (shown in blue in FIG. 12) have essentially no detectable CD59. […] Type II cells (shown in purple in FIG. 12) have reduced levels of CD59 as compared with normal or Type I cells and have an intermediate sensitivity to complement-mediated lysis. […] Reduction in or absence of lysis may be evidenced by increased levels of C3 or C3 activation products on Type II cells, as is evident by comparing the level of C3d on Type II cells in the no lysis panel with the level of C3d on Type II cells in the max. lysis panel in both FIGS. 12(A) and 12(B). […] A shift in the relative percentages of Type I, II, and III cells from the percentages present in the max. lysis control panels (Mg^2+) towards the percentages present in the no lysis control panels (heat inactivated serum) is indicative of protection against complement-mediated lysis. The column labeled % C′3 in Table 11 refers to the percentage of cells deemed “positive” for presence of C3 and C3 activation products (“C3 loading”).

[3] = system: complement activation via the classical pathway; assay: classical complement inhibition assay (C3b deposition ELISA); type: biochemical, Human
Procedure: Inhibitory activity of the synthesized compounds was assessed by measuring the effect of the compounds on complement activation via the classical pathway using a standard complement inhibition assay. The protocol measures C3b deposition in an ELISA format. C3b deposition monitored using this method is generated through complement activated by the classical pathway. Briefly, 96-well plates are coated with BSA. Human plasma, chicken ovalbumin (OVA), polyclonal anti-OVA antibodies and compound being tested (referred to as “drug”) are added and incubated, followed by addition of Anti-human C3 HRP-conjugated antibody. After an additional incubation, substrate is added and signal detected. Details of the protocol are as follows:
Protocol for Classical Complement Inhibition Assay
• Ninety-six well plate (polystyrene plate, Thermo Scientific, 9205) • Chicken OVA (Sigma A5503-5G) • Rabbit anti-chicken OVA (Abcam ab1221) • Blocking buffer (Startingblock buffer, Thermo Scientific 37538) • Veronal Buffer (5× concentration, Lonza 12-624E) • Human plasma (collected with Lepirudin at 50 ug/ml final concentration) • Goat anti-human C3 HRP-conjugated Ab (MP Biomedicals, 55237) • Tween-20 Wash Buffer (0.05% Tween 20-PBS buffer) • TMB (Peroxidase substrate, BD 555214)—1:1 mixture of BD 51-2607KC and 51-2606KC. • 1M H2SO4
• 1. […] Read the plate at 450 nm
Data was analyzed using GraphPad Prism5 software. […]

PNH RBCs = assay: modified Ham's assay, comparison with Soliris (Example 19); type: cell-based, human; details: CA28-2GS-BF at 50 ug/ml
Procedure: Flow cytometry was performed after antibody staining using antibodies against CD59 and C3d. In this figure, quadrant 1 (Q1) and quadrant 3 (Q3) represent Type III cells. Quadrant 2 (Q2) and quadrant 4 (Q4) represent Types I and II cells. Q1 and Q2 represent cells with a significant and abnormally high amount of C3 activation product (e.g., C3d) deposition.

[4] = biological target: T1, complement component C3 (human) (human, UniProt P01024 23-1663); assay: cell-based or functional assay
[5] = biological target: T1, complement component C3 (human); assay: cell-based or functional assay; remark: listed apart in the source
[6] = biological target: T1, complement component C3 (human); assay: cell-based or functional assay; remark: listed apart in the source

Molecule: CC[C@H](C)[C@H](N)C(=O)N[C@H]1CSSC[C@@H](C(=O)N[C@H](C(N)=O)[C@@H](C)O)NC(=O)[C@H](CCCN=C(N)N)NC(=O)[C@H](Cc2cnc[nH]2)NC(=O)[C@H](Cc2cnc[nH]2)NC(=O)CNC(=O)[C@H](Cc2c[nH]c3ccccc23)NC(=O)[C@H](CC(=O)O)NC(=O)[C@H](CCC(N)=O)NC(=O)[C@H](C(C)C)NC(=O)[C@H](C(C)C)NC1=O [Compstatin]
- IC50 [1]: 12000 nM

Molecule: CA28-2GS-BF: two CA28-AEEAc-Lys moieties coupled to bifunctional linear 40 kD PEG, NHS-OCO(CH2)3COO-PEG-CO(CH2)3COO-NHS
- C3 loading on PNH red cells ([2]; at 100 micrograms/ml compound or higher concentrations): virtually no C3 loading
- Type III % ([2]; compound at 20 micrograms/ml): 19.19%
- % C′3 (Type I) ([2]; compound at 20 micrograms/ml): 2.18%
- % C′3 (Type II) ([2]; compound at 20 micrograms/ml): 12.28%
- % C′3 (Type III) ([2]; compound at 20 micrograms/ml): 0.99%
- % C′3 (Type I) ([2]; compound at 40 micrograms/ml): 2.84%
- % C′3 (Type III) ([2]; compound at 40 micrograms/ml): 1.21%
- Type III % ([2]; compound at 50 micrograms/ml): 13.87%
- % C′3 (Type I) ([2]; compound at 50 micrograms/ml): 2.28%
- % C′3 (Type III) ([2]; compound at 50 micrograms/ml): 1.29%
- % C′3 (Type I) ([2]; compound at 60 micrograms/ml): 2.05%
- % C′3 (Type II) ([2]; compound at 60 micrograms/ml): 13.04%
- % C′3 (Type III) ([2]; compound at 60 micrograms/ml): 1.44%
- Type II % ([2]; compound at 100 micrograms/ml): 53.93%
- % C′3 (Type I) ([2]; compound at 100 micrograms/ml): 0.07%
- % C′3 (Type II) ([2]; compound at 100 micrograms/ml): 0.88%
- % C′3 (Type III) ([2]; compound at 100 micrograms/ml): 0.11%
- Type II % ([2]; compound at 200 micrograms/ml): 51.99%
- % C′3 (Type I) ([2]; compound at 200 micrograms/ml): 0.02%
- % C′3 (Type II) ([2]; compound at 200 micrograms/ml): 0.26%
- % C′3 (Type III) ([2]; compound at 200 micrograms/ml): 0.02%
- Type II % ([2]; compound at 500 micrograms/ml): 51.87%
- Type III % ([2]; compound at 500 micrograms/ml): 37.87%
- % C′3 (Type I) ([2]; compound at 500 micrograms/ml): 0.04%
- % C′3 (Type II) ([2]; compound at 500 micrograms/ml): 0.3%
- % C′3 (Type III) ([2]; compound at 500 micrograms/ml): 0.05%
- activity per compstatin analog (peptide) moiety compared with CA28 [3]: less than the activity of an individual CA28 molecule
- complement inhibiting activity compared with CA28 on a molar basis [3]: virtually identical
- Q1 # Events (PNH RBCs; Q1 = Type III cells with abnormally high C3d deposition): 23
- Q3 # Events (PNH RBCs; Q3 = Type III cells without significant C3d deposition): 153,187
- Q4 # Events (PNH RBCs; Q4 = Types I and II cells without significant C3d deposition): 95,713
- deposition of C3d / C3 activation products on PNH RBCs (PNH RBCs; activated complement): essentially no deposition of C3d

B1: CA28-2TS-BF (bifunctionalized PEG-based compstatin analog, TS type) (peptide)
peptide: ICVWQDWGAHRCTK
modifications: N-terminal acetyl; 1-methyl-tryptophan at position 4; disulfide Cys2-Cys12; AEEAc linker after Thr13; Lys side chain coupled through a carbamate to one end of a bifunctional linear 40 kD PEG (TS type); C-terminal amide
- IC50 (read off the curve); alternative pathway complement activation (LPS-coated plate, C3b deposition ELISA, human plasma) [B] [4]: ~400 nM

B2: (CA28-AEEAc)8-PEG40k (peptide)
peptide: ICVWQDWGAHRCTK
modifications: N-terminal acetyl; 1-methyl-tryptophan at position 4; disulfide Cys2-Cys12; AEEAc linker after Thr13; Lys side chain coupled to one arm of an eight-arm 40 kD PEG (NOF HGEO-400GS); C-terminal amide
- IC50, classical complement inhibition assay (C3b deposition ELISA), as a function of CA28 concentration [5]: 1930 nM
- IC50 on a molar basis, classical complement inhibition assay [6]: ~260 nM
